According to paper PMC9130538, “Amino acids in transmembrane helix 1 confer major functional differences between human and mouse orthologs of the polyspecific membrane transporter OCT1” (The Journal of Biological Chemistry, 2022):

Experiments:
human OCT1 = target: T1, human OCT1 (Homo sapiens, UniProt O15245); test: Cellular uptake by HEK293 cells overexpressing human OCT1 (wildtype)
T1 sequence (O15245 1-554): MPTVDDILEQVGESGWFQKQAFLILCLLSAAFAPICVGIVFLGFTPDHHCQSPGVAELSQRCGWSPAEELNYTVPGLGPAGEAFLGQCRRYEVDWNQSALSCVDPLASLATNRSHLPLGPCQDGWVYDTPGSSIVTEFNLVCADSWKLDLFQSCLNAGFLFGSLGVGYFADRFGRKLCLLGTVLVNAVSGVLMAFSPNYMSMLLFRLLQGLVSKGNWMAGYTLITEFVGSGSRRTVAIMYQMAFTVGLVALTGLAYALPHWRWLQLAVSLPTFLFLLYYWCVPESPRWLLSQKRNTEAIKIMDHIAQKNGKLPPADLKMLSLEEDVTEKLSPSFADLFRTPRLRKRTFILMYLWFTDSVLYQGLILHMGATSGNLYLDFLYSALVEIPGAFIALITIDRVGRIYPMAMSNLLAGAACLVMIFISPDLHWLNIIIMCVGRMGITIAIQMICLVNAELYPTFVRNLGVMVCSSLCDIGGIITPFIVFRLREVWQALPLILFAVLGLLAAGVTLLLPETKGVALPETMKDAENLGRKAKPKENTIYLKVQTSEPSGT
Experimental: Generation and characterization of these cell lines has been described in detail before ([34], [48], [49]). Cells were cultured in Dulbecco’s Modified Eagle’s Medium supplemented with 10% fetal bovine serum, 100 U/ml penicillin, and 100 μg/ml streptomycin at 37 °C and 5% CO2 and were passaged twice a week.
At 48 h prior to the experiment, 6 × 10^5 cells were seeded per well in 12-well plates. When using transiently transfected cells, 5 × 10^5 T-REx-293 cells (Life Technologies) were seeded per well in 12-well plates 72 h prior to the experiment, and they were transfected 24 h later as described previously. Twelve-well plates were precoated with poly-D-lysine.
(§1) Cellular uptake experiments were performed at 37 °C and pH 7.4 using HBSS supplemented with 10 mM Hepes (in the following referred to as HBSS+). Cells were washed with 1 ml prewarmed (37 °C) HBSS+, and the uptake was initiated by adding 400 μl of prewarmed HBSS+ containing the substrate. Uptake was allowed for exactly 2 min and afterward stopped by adding 2 ml ice-cold HBSS+. Cells were washed twice with 2 ml ice-cold HBSS+ and lysed with 80% acetonitrile supplemented with internal standard, 0.1 N NaOH/0.1% SDS, or radioimmunoprecipitation buffer for LC–MS/MS, liquid scintillation counting, or fluorescence spectroscopy detection, respectively. Intracellular substrate concentrations were measured as described in the following and were then normalized to the amount of total protein in the samples as measured using the bicinchoninic acid assay ([51]).
For LC–MS/MS quantification of intracellular substrate concentrations, the cell lysate was centrifuged at 16,000g for 15 min, and 350 μl of supernatant was evaporated to dryness under nitrogen flow at 40 °C. The sample was reconstituted with 200 μl 0.1% formic acid, and between 2 and 30 μl were injected into the LC–MS/MS system (Table S1).
An API4000 QTRAP tandem mass spectrometer with ESI interface (AB SCIEX) was used, coupled to a Shimadzu Nexera X2 UHPLC system with LC 30AD pumps and SiL 30AC autosampler (Shimadzu).
Intracellular concentrations of radioactively labeled substrates MPP^+ and TEA^+ were quantified using liquid scintillation counting. To this end, 400 μl cell lysate was transferred into a 20 ml scintillation vial, 9 ml Aquasafe 500 Plus liquid scintillator (both Zinsser Analytics) was added, and the sample was measured in the Scintillation Counter LS6500 (Beckman Coulter).
For both analyses, SPSS Statistics, version 28 (SPSS, Inc, IBM) was used.

[1] = target: T2, human OCT1 with mouse TMH1 (human–mouse chimeric OCT1) (Homo sapiens, UniProt O15245, A31S/C36Y/F32L/I24L/L28I); test: Uptake by HEK293 cells transiently overexpressing chimeric human OCT1 carrying mouse TMH1; format: cell-based; settings: 200 μM trospium, 2 min, transient transfection
T2 construct: expressed in transfected cells
Experimental: (§2) Human–mouse chimeric OCT1 constructs were generated using the overlap extension method ([50]) and have been characterized before ([34]). […] All constructs were validated by capillary sequencing of the complete open reading frame of OCT1 before transfection into HEK293 cells.
(§3) For transient transfection of OCT1 constructs into HEK293 cells for uptake experiments, 5 × 10^5 T-REx-293 cells (Life Technologies) were seeded per well in 12-well plates precoated with poly-D-lysine. […] At 48 h later, transfection efficacy was assessed microscopically by visualizing the GFP signal of the cotransfected GFP vector, and the cells were subsequently used for uptake experiments. […]
as §1, with “Cells were washed with 1 ml prewarmed (37 °C) HBSS+, and the uptake was initiated by adding 400 μl of prewarmed HBSS+ containing the substrate. Uptake was allowed for exactly 2 min and afterward stopped by adding 2 ml ice-cold HBSS+.” left out, “([51]). […]” for “([51]).”

human OCT1 Cys36Tyr = target: T3, human OCT1 Cys36Tyr (Homo sapiens, UniProt O15245, C36Y); test: Uptake by HEK293 cells overexpressing Cys36Tyr human OCT1; format: cell-based; settings: 200 μM trospium, 2 min, transient transfection
T3 construct: expressed in transfected cells
Experimental: as §2, §3
as §1, with “Cells were washed with 1 ml prewarmed (37 °C) HBSS+, and the uptake was initiated by adding 400 μl of prewarmed HBSS+ containing the substrate. Uptake was allowed for exactly 2 min and afterward stopped by adding 2 ml ice-cold HBSS+.” left out, “([51]). […]” for “([51]).”

human OCT1 Phe32Leu = target: T4, human OCT1 Phe32Leu (Homo sapiens, UniProt O15245, F32L); test: Uptake by HEK293 cells overexpressing Phe32Leu human OCT1; format: cell-based; settings: 200 μM trospium, 2 min, transient transfection, versus human wildtype
T4 construct: expressed in transfected cells
Experimental: as §2, §3
as §1, with “Cells were washed with 1 ml prewarmed (37 °C) HBSS+, and the uptake was initiated by adding 400 μl of prewarmed HBSS+ containing the substrate. Uptake was allowed for exactly 2 min and afterward stopped by adding 2 ml ice-cold HBSS+.” left out, “([51]). […]” for “([51]).”

mouse Oct1 Leu32Phe = target: T5, mouse Oct1 Leu32Phe (Mus musculus, UniProt O08966, L32F); test: Uptake by HEK293 cells overexpressing Leu32Phe mouse Oct1; format: cell-based; settings: 200 μM trospium, 2 min, transient transfection
T5 construct: expressed in transfected cells
Experimental: as §2, §3
as §1, with “Cells were washed with 1 ml prewarmed (37 °C) HBSS+, and the uptake was initiated by adding 400 μl of prewarmed HBSS+ containing the substrate. Uptake was allowed for exactly 2 min and afterward stopped by adding 2 ml ice-cold HBSS+.” left out, “([51]). […]” for “([51]).”

[2] = human, estimated based on clinical data, ref [39]; cited from earlier work
[3] = human versus mouse OCT1, stably transfected HEK293

T5 sequence (O08966 whole entry L32F): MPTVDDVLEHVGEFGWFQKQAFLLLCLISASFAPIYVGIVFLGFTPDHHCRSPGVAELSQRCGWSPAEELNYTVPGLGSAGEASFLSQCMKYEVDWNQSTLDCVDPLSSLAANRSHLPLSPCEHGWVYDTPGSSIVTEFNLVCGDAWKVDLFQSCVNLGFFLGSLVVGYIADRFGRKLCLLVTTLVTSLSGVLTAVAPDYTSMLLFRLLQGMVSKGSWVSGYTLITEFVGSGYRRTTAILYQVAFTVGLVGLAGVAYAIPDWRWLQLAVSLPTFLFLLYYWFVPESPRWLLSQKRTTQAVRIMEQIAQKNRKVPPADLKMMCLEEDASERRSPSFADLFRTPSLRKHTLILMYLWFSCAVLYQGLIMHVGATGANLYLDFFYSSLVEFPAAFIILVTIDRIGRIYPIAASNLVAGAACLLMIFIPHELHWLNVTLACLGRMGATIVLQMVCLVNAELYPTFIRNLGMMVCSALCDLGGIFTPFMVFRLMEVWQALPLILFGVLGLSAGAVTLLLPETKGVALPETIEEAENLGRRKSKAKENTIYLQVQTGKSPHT

SMILES: O=C(O[C@H]1C[C@H]2CC[C@@H](C1)[N+]21CCCC1)C(O)(c1ccccc1)c1ccccc1 [Trospium]
- difference in uptake between human and mouse OCT1 at low concentration (human OCT1; 100 nM, 2 min, stably transfected HEK293): did not see differences in uptake
- fold higher capacity (vmax) of human OCT1 than mouse Oct1 (human OCT1; [3]): 9.0 fold
- fold lower affinity (KM) of human OCT1 than mouse Oct1 (higher affinity of mouse Oct1) (human OCT1; [3]): 10.6 fold
- decrease of trospium uptake compared with human wildtype [1]: 91%
- effect of Cys36Tyr on uptake of trospium (human OCT1 Cys36Tyr): did not affect
- decrease of trospium uptake by Phe32Leu in human OCT1 (human OCT1 Phe32Leu): 79%
- trospium uptake exceeding the uptake of the human ortholog (mouse Oct1 Leu32Phe; versus human wildtype OCT1): 2.8 fold
- increase of trospium uptake by Leu32Phe in mouse Oct1 (mouse Oct1 Leu32Phe; versus mouse wildtype): sevenfold
- clinically relevant (plasma) concentration [2]: 13.3 nM
